How the values were obtained:
[1] = tested on: integrin αVβ3 surface expression in C4-2B prostate cancer cells; test: αVβ3 protein stimulation and verification (immunocytochemistry); type: cell-based, human; details: C4-2B cells, 200 ng/mL CXCL12, after first hour, constant for 12 hours
Protocol: αVβ3 Protein Stimulation and Verification. C4-2B cells were grown on glass coverslips in a six-well dish and then stimulated to express αVβ3 by treatment with 200 ng/mL of recombinant human CXCL12 (R&D Systems, Minneapolis, Minn.) for 1, 6, or 12 hours at 37° C. After cells were stimulated they were rinsed with PBS, fixed with 4% formaldehyde (Affymetrix) for 10 min at room temperature, washed twice with PBS, and blocked for 1 hour with 1% BSA in PBS. Next cells were incubated for 4 hours with a 1:100 dilution of anti-integrin αVβ3 antibody, clone LM609 (Millipore). Incubation was followed by three washes with PBS, and then incubated for 45 minutes with a 1:200 dilution of the goat anti-mouse IgG (H+L) secondary antibody, Alexa Fluor 488 conjugate (Life Technologies). Cells were washed twice more and mounted on slides with Prolong Gold antifade reagent with DAPI (Invitrogen). Fluorescent images were taken with Olympus AX70 Florescent Microscope.

[2] = In vivo bone retention (intraosseous injection); details: injected into mouse tibia, live animal imaging up to 72 hours, NIR dye
Protocol: In vivo bone retention. […] Animals were imaged initially and at time points: 1 hour, 24 hours, 48 hours, and 72 hours to assess for NIR signal on IVIS animal imager. Fluorescent signal was quantified at each time and compared to the signal for the initial time point of each mouse to give the percentage of retained nanoparticle in the bone. Additionally, half-life of nanoparticle signal in the bone was calculated with the following equation: N(t)=N0(½)^(t/t1/2).

[3] = target: ATP-dependent drug efflux pump glycoprotein (P-gp) (Homo sapiens, UniProt P08183); details: cited from earlier work
Sequence of ATP-dependent drug efflux pump glycoprotein (P-gp) (P08183 whole entry): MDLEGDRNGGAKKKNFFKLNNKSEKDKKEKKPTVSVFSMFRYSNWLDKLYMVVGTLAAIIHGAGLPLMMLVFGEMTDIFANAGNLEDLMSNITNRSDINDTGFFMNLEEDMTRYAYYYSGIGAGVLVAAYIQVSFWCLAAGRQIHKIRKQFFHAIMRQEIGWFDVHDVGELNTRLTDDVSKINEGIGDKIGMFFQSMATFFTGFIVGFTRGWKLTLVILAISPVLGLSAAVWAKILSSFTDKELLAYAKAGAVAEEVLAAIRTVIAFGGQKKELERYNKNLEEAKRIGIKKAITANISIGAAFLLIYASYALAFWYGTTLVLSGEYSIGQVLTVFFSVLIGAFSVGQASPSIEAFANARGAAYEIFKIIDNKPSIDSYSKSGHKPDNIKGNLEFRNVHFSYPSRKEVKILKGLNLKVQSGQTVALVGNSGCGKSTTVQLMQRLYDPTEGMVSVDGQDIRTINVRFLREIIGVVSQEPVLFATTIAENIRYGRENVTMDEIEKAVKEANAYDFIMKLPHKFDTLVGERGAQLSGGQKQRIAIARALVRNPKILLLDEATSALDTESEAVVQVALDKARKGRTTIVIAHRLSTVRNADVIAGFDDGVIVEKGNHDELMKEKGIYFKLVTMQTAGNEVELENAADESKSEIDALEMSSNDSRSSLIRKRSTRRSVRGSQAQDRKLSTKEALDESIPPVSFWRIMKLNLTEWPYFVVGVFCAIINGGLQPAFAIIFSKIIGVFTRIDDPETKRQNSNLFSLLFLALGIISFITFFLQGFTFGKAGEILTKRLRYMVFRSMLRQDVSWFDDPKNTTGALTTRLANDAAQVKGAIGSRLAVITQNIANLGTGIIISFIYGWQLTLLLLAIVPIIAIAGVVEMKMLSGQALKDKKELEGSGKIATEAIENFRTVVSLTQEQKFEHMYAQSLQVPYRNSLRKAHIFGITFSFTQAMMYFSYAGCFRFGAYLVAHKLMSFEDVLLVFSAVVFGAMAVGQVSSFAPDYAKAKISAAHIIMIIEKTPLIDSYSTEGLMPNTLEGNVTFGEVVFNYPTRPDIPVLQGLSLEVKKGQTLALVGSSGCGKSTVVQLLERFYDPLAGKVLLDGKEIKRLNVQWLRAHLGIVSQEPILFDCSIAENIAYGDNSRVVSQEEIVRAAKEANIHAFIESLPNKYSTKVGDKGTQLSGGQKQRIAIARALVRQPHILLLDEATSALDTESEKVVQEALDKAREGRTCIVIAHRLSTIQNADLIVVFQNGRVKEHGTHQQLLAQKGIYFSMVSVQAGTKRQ

C-X-C motif chemokine ligand 12 [CXCL12]
increase in expression level of αVβ3 [1]: approximately 2 fold

CCCN1C(=CC=C2CCCC(C=CC3=[N+](CCC)c4ccccc4C3(C)C)=C2Cl)C(C)(C)c2ccccc21.[I-] [dye, IR-780 dye]
retention and half-life in the bone [2]: equivalent regarding retention in the bone

CO[C@H]1C(=O)[C@]2(C)[C@@H](OC)C[C@H]3OC[C@@]3(OC(C)=O)[C@H]2[C@H](OC(=O)c2ccccc2)[C@]2(O)C[C@H](OC(=O)[C@H](O)[C@@H](NC(=O)OC(C)(C)C)c3ccccc3)C(C)=C1C2(C)C [Cabazitaxel]
substrate affinity for P-gp [3]: lower substrate affinity

— patent publication US20220008350A1, “PROCESS FOR ENGINEERING TARGETED NANOPARTICLES” (University of North Texas Health Science Center, priority 2018, published 2022)
